Read-outs that look alike come from different tables or passages of the source.
Assays:
Format in all cases: cell-based, human
[1] = system: DU145 prostate cancer cells; experiment: Cell survival assay (SRB); details: for IC50: Homo sapiens, DU-145, DU145 (prostate), read-out: Cytoselectivities (nM) DU145; for Selectivity Index DU145: Table 13, S enantiomer, IC50(NFF)/IC50(cancer cell line)
Protocol: (§1) Cell Lines and Culture Medium. All cell lines used in this study have been described previously (Parsons et al., 1986; Todaro et al., 1980; Glenn et al., 2004). All cell lines were cultured in 10% heat-inactivated foetal calf serum (CSL, Australia) in RPMI 1640 medium supplemented with 100 U/mL penicillin, 100 μg/mL streptomycin, and 3 mM HEPES at 5% CO2, 99% humidity at 37° C. Primary human fibroblasts were obtained from neonatal foreskins and cultured in the above medium. Routine mycoplasma tests were performed using Hoechst stain^i and were always negative.
(§2) Cell Survival Assay. Cells were plated into 96-well microtitre plates at 5×10^3 cells/well, and allowed to adhere overnight. Test compounds were added to culture medium at the indicated concentrations, and plates incubated in the above conditions for 24 hours. Following this incubation period, compounds and media were removed, and replaced with fresh culture medium. Cells were then grown for a further 72 hours before assay using sulforhodamine B (SRB; Sigma, St. Louis, Mo.) as previously described. Briefly, the culture medium was removed from the 96-well microtitre plates and the plates washed twice with phosphate buffered saline (PBS), before the cells were fixed with methylated spirits for 15 minutes. The plates were then rinsed with tap water and the fixed cells stained with 50 μL/well of SRB solution (0.4% sulforhodamine B (w/v) in 1% (v/v) acetic acid) over a period of 1 hour. The SRB solution was then removed from the wells and the plates rapidly washed two times with 1% (v/v) acetic acid. Protein bound dye was then solubilised with the addition of 100 μL of 10 mM unbuffered Tris, and incubated for 15 min at 25° C. Plates were then read at 564 nm on a VERSA max tunable microplate reader (Molecular Devices, Sunnyvale, Calif.).
(§3) For comparison their results are also shown for MM96L and NFF cell lines.

[2] = system: SkMel28 melanoma cells; experiment: Cell survival assay (SRB); details: for IC50: Homo sapiens, SK-MEL-28 (melanoma), read-out: Cytoselectivities (nM) SK-MEL-28; for Selectivity Index SK-MEL-28: Table 13, S enantiomer, IC50(NFF)/IC50(cancer cell line)
Protocol: as §1, §2, §3

[3] = system: MCF-7 breast cancer cells; experiment: Cell survival assay (SRB); details: for IC50: Homo sapiens, MCF7, MCF-7 (breast), read-out: Cytoselectivities (nM) MCF-7; for Selectivity Index MCF-7: Table 13, S enantiomer, IC50(NFF)/IC50(cancer cell line)
Protocol: as §1, §2, §3

[4] = system: JAM ovarian cancer cells; experiment: Cell survival assay (SRB); details: for IC50: Homo sapiens, read-out: Cytoselectivities (nM) JAM; for Selectivity Index JAM: Table 13, S enantiomer, IC50(NFF)/IC50(cancer cell line)
Protocol: as §1, §2, §3

[5] = system: CI-80-13S ovarian cancer cells; experiment: Cell survival assay (SRB); details: for IC50: Homo sapiens, read-out: Cytoselectivities (nM) CI80-13S; for Selectivity Index CI80-13S: Table 13, S enantiomer, IC50(NFF)/IC50(cancer cell line)
Protocol: as §1, §2, §3

[6] = system: NFF, neonatal foreskin fibroblasts; experiment: Cell survival assay (clonogenic survival, SRB), normal cells; details: Homo sapiens, Fibroblast, NFF normal fibroblasts; 24 h with compound, further 72 h growth, SRB; read-out: IC50 (uM) NFF
Summary of the method: (§4)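 Cells (5×10^3/well, RPMI 1640 with 10% FCS) treated 24 h with compound at 0.01-10 μg/mL, then washed and grown 72 h drug-free at 37 °C, 5% CO2. Survival read by SRB staining after methylated-spirit fixation, absorbance 564 nm.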

[7] = system: MM96L melanoma cells; experiment: Cell survival assay (clonogenic survival, SRB); details: for IC50: Homo sapiens, MM96L; for SI (Selectivity Index = IC50 (NFF)/IC50 (MM96L)): NFF vs MM96L; for Selectivity Index MM96L: Table 13, S enantiomer, IC50(NFF)/IC50(cancer cell line)
Summary of the method: as §4

[8] = system: HOP62 cells; experiment: Cell survival assay (SRB); details: for IC50: Homo sapiens, HOP-62, HOP62 (lung), read-out: Cytoselectivities (nM) HOP62; for Selectivity Index HOP62: Table 13, S enantiomer, IC50(NFF)/IC50(cancer cell line)
Protocol: as §1, §2

[9] = system: A549 cells; experiment: Cell survival assay (SRB); details: for IC50: Homo sapiens, A549 (lung), read-out: Cytoselectivities (nM) A549; for Selectivity Index A549: Table 13, S enantiomer, IC50(NFF)/IC50(cancer cell line)
Protocol: as §1, §2

[10] = system: SK-MEL-5 cells; experiment: Cell survival assay (SRB); details: for IC50: Homo sapiens, SK-MEL-5, read-out: Cytoselectivities (nM) SK-MEL-5; for Selectivity Index SK-MEL-5: Table 13, S enantiomer, IC50(NFF)/IC50(cancer cell line)
Protocol: as §1, §2

[11] = system: H520 cells; experiment: Cell survival assay (SRB); details: for IC50: Homo sapiens, NCI-H520, read-out: Cytoselectivities (nM) H520; for Selectivity Index H520: Table 13, S enantiomer, IC50(NFF)/IC50(cancer cell line)
Protocol: as §1, §2

[12] = system: PC-3 cells; experiment: Cell survival assay (SRB); details: for IC50: Homo sapiens, PC-3, read-out: Cytoselectivities (nM) PC-3; for Selectivity Index PC-3: Table 13, S enantiomer, IC50(NFF)/IC50(cancer cell line)
Protocol: as §1, §2

[13] = system: Col208 cells; experiment: Cell survival assay (SRB); details: for IC50: Homo sapiens, Col208 (colon), read-out: Cytoselectivities (nM) Col208; for Selectivity Index Col208: Table 13, S enantiomer, IC50(NFF)/IC50(cancer cell line)
Protocol: as §1, §2

[14] = system: T-47D cells; experiment: Cell survival assay (SRB); details: for IC50: Homo sapiens, T47D, read-out: Cytoselectivities (nM) T-47D; for Selectivity Index T-47D: Table 13, S enantiomer, IC50(NFF)/IC50(cancer cell line)
Protocol: as §1, §2

[15] = system: HT29 cells; experiment: Cell survival assay (SRB); details: for IC50: Homo sapiens, HT-29, HT29 (colon), read-out: Cytoselectivities (nM) HT29; for Selectivity Index HT29: Table 13, S enantiomer, IC50(NFF)/IC50(cancer cell line)
Protocol: as §1, §2

[16] = MM96L melanoma, 24 h with compound, further 72 h growth, SRB, read-out: IC50 (uM) MM96L
[17] = Table 12, read-out: Cytoselectivities (nM) MM96L
[18] = most preferred compounds, exemplary examples, read-out: potency of IC50 against the MM96 melanoma cells

Compound	IC50 [1]	Selectivity Index DU145 [1]	IC50 [2]	Selectivity Index SK-MEL-28 [2]	IC50 [3]	Selectivity Index MCF-7 [3]	IC50 [4]	Selectivity Index JAM [4]	IC50 [5]	Selectivity Index CI80-13S [5]	IC50 [6]	IC50 [7, 16]	IC50 [7, 17]	SI (Selectivity Index = IC50 (NFF)/IC50 (MM96L)) [7]	Selectivity Index MM96L [7]	IC50 [8]	Selectivity Index HOP62 [8]	IC50 [9]	Selectivity Index A549 [9]	IC50 [10]	also measured
CC(C)COC(=O)N[C@@H](CCCCCC(=O)NO)C(=O)Nc1cccc2cccnc12 [Example 149]	130 nM	0.6	170 nM	0.5	138 nM	0.6	221 nM	0.4	149 nM	0.5	0.081 µM	0.023 µM	0.116 µM	3.5	0.7	267 nM	0.3	291 nM	0.3	100 nM	Selectivity Index SK-MEL-5 [10]: 0.8; IC50 [11]: 129 nM; Selectivity Index H520 [11]: 0.6; IC50 [12]: 651 nM; Selectivity Index PC-3 [12]: 0.1; IC50 [13]: 395 nM; Selectivity Index Col208 [13]: 0.2; IC50 [14]: 198 nM; Selectivity Index T-47D [14]: 0.4; IC50 [15]: 360 nM; Selectivity Index HT29 [15]: 0.2
CN(C)c1ccc(C(=O)N[C@@H](CCCCCC(=O)NO)C(=O)Nc2cccc3cccnc23)cc1 [Example 126]	61 nM	9	73 nM	8	35 nM	16	85 nM	7	65 nM	9	0.57 ± 0.07 µM	0.02 ± 0.01 µM	0.051 µM	28	11	137 nM	4	148 nM	4	32 nM	IC50 [7, 18]: ≤ 0.5 µM; Selectivity Index SK-MEL-5 [10]: 18; IC50 [11]: 63 nM; Selectivity Index H520 [11]: 9; IC50 [12]: 220 nM; Selectivity Index PC-3 [12]: 3; IC50 [13]: 223 nM; Selectivity Index Col208 [13]: 1.5; IC50 [14]: 45 nM; Selectivity Index T-47D [14]: 13; IC50 [15]: 178 nM; Selectivity Index HT29 [15]: 3
O=C(CCCCC[C@H](NC(=O)c1cc2ccccc2[nH]1)C(=O)Nc1cccc2cccnc12)NO [Example 132]	22 nM	15	33 nM	10	19 nM	18	48 nM	7	20 nM	17	0.337 µM	0.021 µM	0.018 µM	16	19	63 nM	5	69 nM	5	18 nM	IC50 [7, 18]: ≤ 0.5 µM; Selectivity Index SK-MEL-5 [10]: 18; IC50 [11]: 26 nM; Selectivity Index H520 [11]: 13; IC50 [12]: 148 nM; Selectivity Index PC-3 [12]: 2; IC50 [13]: 102 nM; Selectivity Index Col208 [13]: 3; IC50 [14]: 19 nM; Selectivity Index T-47D [14]: 18; IC50 [15]: 79 nM; Selectivity Index HT29 [15]: 4

Reference: US20080004290A1, “Anti-Cancer Agents” (THE UNIVERSITY OF QUEENSLAND, priority 2003, published 2008)
